Reference: paper PMC10215404, “Effect of Indole-Containing Pyrazino[2,1-b]quinazoline-3,6-diones in the Virulence of Resistant Bacteria” (Antibiotics, 2023)
Values after ≈ are worked out from the molar mass of the structure shown. Read-outs that look alike come from different tables or passages of the source.

Columns and labels:
[1] = system: phytopathogenic fungi; design: method as in PMID 22409377; details: several phytopathogenic fungi; cited from earlier work
[2] = system: S. aureus 272123; assay: Real-time ethidium bromide accumulation assay (efflux pump inhibition); details: minute 60
[3] = system: E. coli SA/2; design: method as in PMID 34203998; details: cited from earlier work
[4] = system: Staphylococcus aureus; details: cited from earlier work
[5] = system: MRSA 272123; assay: Biofilm formation, crystal violet method; type: cell-based, Staphylococcus aureus
Method: (§1) The antibiofilm effect of the tested compounds was evaluated using the crystal violet method on E. coli AG100, E. coli AG100A, and MRSA 272123. […] CCCP was used as a positive control.
(§2) The biofilm-forming ability of the S. aureus strains was studied in 96-well microtiter plates using TSB broth in the presence of compounds. The biofilm-forming ability of the E. coli strains was studied in 96-well microtiter plates using LB broth in the presence of the compounds. […] The final volume was 200 μL in each well. The positive control was CCCP at 50 µM. Plates were incubated for 48 h at 30 °C with gentle shaking at 100 rpm. After the incubation period, the medium was removed and the plate was washed with water to remove unattached cells. A total of 200 μL CV (0.1% [v/v]) was added to each wells and incubated for 15 min at room temperature. CV was discarded from the wells and the plate was washed with water again. Then, 200 μL of 70% ethanol was added to each well and the biofilm formation was determined by measuring the OD at 600 nm using a Multiscan EX ELISA plate reader (Thermo Labsystems, Cheshire, WA, USA). The antibiofilm effect of the compounds was expressed as the percentage (%) decrease in biofilm formation.

[6] = system: E. coli AG100; assay: MIC determination, broth microdilution; type: cell-based; details: Escherichia coli
Description: (§3) Both reference and resistant strains used in this work were employed by our group for the screening of different families of compounds, such as xanthones and thioxanthones.

[7] = system: E. coli AG100A; assay: MIC determination, broth microdilution; type: cell-based; details: Escherichia coli
Description: as §3

[8] = system: S. aureus MRSA 272123; assay: MIC determination, broth microdilution; type: cell-based; details: Staphylococcus aureus
Description: as §3

[9] = system: E. coli AG100A; assay: Real-time ethidium bromide accumulation assay (efflux pump inhibition); details: compound at 50 μM, minute 60
[10] = system: E. coli AG100; assay: Biofilm formation, crystal violet method; type: cell-based, Escherichia coli; details: 50 μM
Method: as §1, §2

[11] = system: E. coli AG100; assay: Real-time ethidium bromide accumulation assay (efflux pump inhibition); details: compound at 50 μM, minute 60
[12] = system: Enterococcus faecalis; details: E. faecalis B3/101; cited from earlier work
[13] = system: E. faecalis B3/101; assay: Antibiotic potentiation with vancomycin, broth microdilution; details: Enterococcus faecalis, B3/101, read-out: MIC of vancomycin alone obtained in this study

C[C@@H]1N[C@H]2N(C1=O)c1ccccc1[C@@]2(O)C[C@@H]1C(=O)N[C@@H](C)c2nc3ccccc3c(=O)n21 [fumiquinazoline A]
MIC [1]: 12.5 to 25 µg/mL

COC(=O)[C@H]1[C@H]2C[C@@H]3c4[nH]c5cc(OC)ccc5c4CCN3C[C@H]2C[C@@H](OC(=O)c2cc(OC)c(OC)c(OC)c2)[C@@H]1OC [RES, reserpine, reference compound]
RFI ± SD ([2]; compound at 25 μM): 0.68 ± 0.05

CO/N=C(\C(=O)N[C@@H]1C(=O)N2C(C(=O)O)=C(COC(C)=O)CS[C@H]12)c1csc(N)n1 [CTX, cefotaxime]
MIC [3]: 512 µg/mL (≈ 1120 µM)

CC(C)C[C@@H]1NC(=O)[C@@H](Cc2c[nH]c3ccccc23)n2c1nc1c(Cl)cc(Cl)cc1c2=O [Compound 4]
MIC ([4]; resistant strain of S. aureus): 8 µg/mL (≈ 17 µM)
MIC ([4]; sensitive strain of S. aureus): 4 µg/mL (≈ 8.52 µM)
decrease in biofilm formation [5]: 91%
MIC [6]: > 100 µM
MIC [7]: > 100 µM
MIC [8]: > 100 µM
RFI ± SD [9]: 0.26 ± 0.07
antibiofilm effect (in words) [10]: reduced the amount of biofilm
RFI ± SD [11]: 0.01 ± 0.02
RFI ± SD ([2]; compound at 50 μM): 1.13 ± 0.20

N#CC(C#N)=NNc1cccc(Cl)c1 [CCCP, carbonyl cyanide m-chlorophenyl hydrazone, reference compound]
RFI ± SD [9]: 1.13 ± 0.02
RFI ± SD [11]: 1.56 ± 0.01

C[C@H]1NC(=O)[C@@H](Cc2c[nH]c3ccccc23)n2c1nc1ccccc1c2=O [fumiquinazoline G]
MIC [1]: 12.5 to 25 µg/mL

CN[C@H](CC(C)C)C(=O)N[C@H]1C(=O)N[C@@H](CC(N)=O)C(=O)N[C@H]2C(=O)N[C@H]3C(=O)N[C@H](C(=O)N[C@H](C(=O)O)c4cc(O)cc(O)c4-c4cc3ccc4O)[C@H](O)c3ccc(c(Cl)c3)Oc3cc2cc(c3O[C@@H]2O[C@H](CO)[C@@H](O)[C@H](O)[C@H]2O[C@H]2C[C@](C)(N)[C@H](O)[C@H](C)O2)Oc2ccc(cc2Cl)[C@H]1O [vancomycin, reference compound]
MIC [12]: 1024 µg/mL (≈ 707 µM)
MIC [13]: 516 µg/mL

CC(C)C[C@@H]1NC(=O)[C@@H](Cc2c[nH]c3ccccc23)n2c1nc1ccc(Br)cc1c2=O [Compound 13b]
MIC [8]: > 100 µM
RFI ± SD [9]: 0.12 ± 0.05
RFI ± SD [11]: 0.52 ± 0.18
RFI ± SD ([2]; compound at 50 μM): 1.53 ± 0.02
